pIC50: −log10 of the molar value. Activity calls are given as the source filed them. The rule behind the calls is not given here.
Legend:
[1] = (§1) Inhibition of Plasmodium falciparum recombinant SAHH at 1000 uM
Adenosylhomocysteinase [2] = molecular target: T1, Adenosylhomocysteinase (Homo sapiens, UniProt P23526); experiment: Inhibition of human recombinant SAHH at 1000 uM
Target sequence in this assay (P23526 2-432 limits assumed): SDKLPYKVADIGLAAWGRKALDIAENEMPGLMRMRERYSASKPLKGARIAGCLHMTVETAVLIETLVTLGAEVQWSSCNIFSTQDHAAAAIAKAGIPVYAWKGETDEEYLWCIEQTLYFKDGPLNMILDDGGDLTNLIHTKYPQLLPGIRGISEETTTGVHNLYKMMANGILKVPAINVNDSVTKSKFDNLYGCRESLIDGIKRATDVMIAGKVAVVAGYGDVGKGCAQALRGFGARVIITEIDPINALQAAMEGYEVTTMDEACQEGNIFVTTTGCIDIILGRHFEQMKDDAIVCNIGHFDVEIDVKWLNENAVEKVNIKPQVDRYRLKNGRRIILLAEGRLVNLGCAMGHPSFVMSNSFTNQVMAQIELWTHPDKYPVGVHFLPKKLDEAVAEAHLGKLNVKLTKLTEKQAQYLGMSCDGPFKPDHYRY

Plasmodium falciparum = experiment: as §1
Adenosylhomocysteinase [3] = molecular target: T1, Adenosylhomocysteinase; experiment: Inhibition of human recombinant SAHH
Target sequence in this assay (P23526 whole entry): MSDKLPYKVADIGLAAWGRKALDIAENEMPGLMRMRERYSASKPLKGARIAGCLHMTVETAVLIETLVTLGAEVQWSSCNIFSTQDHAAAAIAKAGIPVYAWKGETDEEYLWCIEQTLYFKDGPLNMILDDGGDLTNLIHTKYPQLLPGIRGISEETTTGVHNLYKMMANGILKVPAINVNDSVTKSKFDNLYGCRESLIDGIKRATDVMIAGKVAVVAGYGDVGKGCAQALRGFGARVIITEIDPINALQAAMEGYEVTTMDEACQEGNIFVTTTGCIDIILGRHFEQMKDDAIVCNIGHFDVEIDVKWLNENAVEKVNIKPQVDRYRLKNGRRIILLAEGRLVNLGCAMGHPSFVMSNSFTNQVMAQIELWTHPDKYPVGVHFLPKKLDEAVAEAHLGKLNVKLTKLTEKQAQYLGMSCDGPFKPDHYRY

[4] = Inhibition of Plasmodium falciparum recombinant SAHH

pIC50 [1]	Activity (Adenosylhomocysteinase [2])	Activity (Plasmodium falciparum)	pIC50 (Adenosylhomocysteinase [3])	pIC50 [4]	Structure (SMILES)
	inactive	inactive			Nc1ncnc2c1ncn2[C@@H]1C[C@H](OS(=O)(=O)O)[C@@H](O)[C@H]1O
			4.12	3.90	Nc1ncnc2c1ncn2[C@@H]1C[C@H](N)[C@@H](O)[C@H]1O
	inactive	inactive			Nc1ncnc2c1ncn2[C@@H]1C[C@@H](OS(=O)(=O)O)[C@@H](O)[C@H]1O
	inactive	inactive			Nc1nc(N)c2ncn([C@@H]3C[C@H](OS(N)(=O)=O)[C@@H](O)[C@H]3O)c2n1
	inactive	inactive			Nc1nc(N)c2ncn([C@@H]3C[C@H](OS(=O)(=O)O)[C@@H](O)[C@H]3O)c2n1
	inactive	inactive			Nc1ncnc2c1ncn2[C@@H]1C[C@H](OS(N)(=O)=O)[C@@H](O)[C@H]1O
	inactive	inactive			Nc1ncnc2c1ncn2[C@@H]1C[C@@H](OS(N)(=O)=O)[C@@H](O)[C@H]1O
	inactive	inactive			Nc1nc(N)c2ncn([C@@H]3C[C@@H](OS(=O)(=O)O)[C@@H](O)[C@H]3O)c2n1
	inactive	inactive			Nc1nc(N)c2ncn([C@@H]3C[C@@H](OS(N)(=O)=O)[C@@H](O)[C@H]3O)c2n1
			< 3.30	< 3.30	Nc1ncnc2c1ncn2[C@@H]1C[C@@H](N)[C@@H](O)[C@H]1O

Second part, the compound before the results:

Structure (SMILES)	pIC50 [1]	Activity (Adenosylhomocysteinase [2])	Activity (Plasmodium falciparum)	pIC50 (Adenosylhomocysteinase [3])	pIC50 [4]
Nc1ncnc2c1ncn2[C@@H]1CC[C@@H](O)[C@H]1O	5.05				
Nc1ncnc2c1ncn2[C@@H]1C[C@@H](O)[C@@H](O)[C@H]1O				5.12	4.10
[N-]=[N+]=N[C@@H]1C[C@@H](n2cnc3c(N)ncnc32)[C@H](O)[C@@H]1O				3.79	4.05
[N-]=[N+]=N[C@H]1C[C@@H](n2cnc3c(N)ncnc32)[C@H](O)[C@@H]1O				3.91	3.93
Nc1ncnc2c1ncn2[C@@H]1C[C@H](O)[C@@H](O)[C@H]1O [NORARISTEROMYCIN]				5.51	5.96
Nc1ncnc2c1ncn2[C@@H]1C[C@H](F)[C@@H](O)[C@H]1O		inactive			3.70
Nc1ncnc2c1ncn2[C@@H]1C[C@@H](F)[C@@H](O)[C@H]1O		inactive	inactive		
Nc1nc(F)nc2c1ncn2[C@@H]1C[C@H](O)[C@@H](O)[C@H]1O				4.89	4.20

— ChEMBL document CHEMBL1144794, “Synthesis of 4'-modified noraristeromycins to clarify the effect of the 4'-hydroxyl groups for inhibitory activity against S-adenosyl-L-homocysteine hydrolase” (Bioorg Med Chem Lett, 2008)
